Data: patent publication US8568806B2, “Stable and bioavailable compositions of isomers of lycopene for skin and hair” (Indena, S.p.A., priority 2006, dated 2013)

Experiment: Stability of pure lycopene isomers in n-hexane during storage at room temperature
Format: physicochemical
Details: storage in n-hexane at room temperature in the absence of light
Experimental: Pure 5-Z, 9-Z, 13-Z and all-E lycopene were isolated from isomerised tomato oleoresin (submitted to 1 hour heating), by collecting the fractions containing the corresponding peaks after HPLC separation (see below the experimental conditions). Peaks were collected during two consecutive HPLC runs and the corresponding fractions were pooled.
Lycopene isomer profiles were determined by normal phase HPLC according to the method described by Schierle et al. (Schierle, J., Bretzel, W., Buhler, I., Faccin, N., Hess, D., Steiner, K., Schuep, W. (1997). Food. Chem. 59: 459). Samples of isomerized oleoresins were dissolved in n-hexane containing 50 ppm BHT and spun at maximum speed in an Eppendorf Lab centrifuge. The resulting supernatants were immediately analyzed by HPLC. The HPLC system used was a 1100 series Hewlett-Packard model equipped with an ultraviolet-visible photodiode array detector. Data were simultaneously acquired at 470 nm, 464 nm, 346 nm and 294 nm. […]
Amounts of lycopene isomers were calculated based on surface areas of the HPLC peaks using the same extinction coefficient as the all-E lycopene. […]
Stability of lycopene isomers was investigated both in n-hexane and in a tomato oleoresin isomerized by 4 hour heating in ethyl acetate. […] Total lycopene concentration and lycopene isomer profiles were measured at various time intervals during the storage. […]

Structure (SMILES): CC(C)=CCC/C(C)=C/C=C/C(C)=C/C=C/C(C)=C\C=C\C=C(C)\C=C\C=C(C)\C=C\C=C(/C)CCC=C(C)C [13-Z lycopene]
- relative stability of the isomer: less stable isomer
